US5759842A, “In vitro HIV integrase inhibitors” (Merck & Co., Inc., priority 1996, dated 1998)

Tests used:
HIV Integrase = HIV Integrase (Human immunodeficiency virus type 1 group M subtype B, UniProt P04585); experiment: Assay for Inhibition of Strand Transfer by HIV Integrase; format: biochemical
Method: Assay for Inhibition of Strand Transfer by HIV Integrase
Inhibition of strand transfer was conducted according to Hazuda, D. J. et al. Nucleic Acids Res., 22, 1121 (1994), hereby incorporated by reference for these purposes.

[1] = target: DNP-stimulatedATPase activity of rat liver mitochondria; conditions: Koenig et al. 1993, read-out: IC50, DNP-stimulated ATPase activity; cited from earlier work
[2] = target: DNP-stimulatedATPase activity of rat liver mitoplast; conditions: Koenig et al. 1993, read-out: IC50, DNP-stimulated ATPase activity; cited from earlier work

Row | SMILES | IC50 (HIV Integrase) [µM] | IC50 [1] [µM] | IC50 [2] [µM]
1 | CC=CC1C=CC2CC(C)CCC2C1(C)C(O)=C1C(=O)C(CO)N(C)C1=O (centres unmarked) [Compound A, equisetin] | 7 | ~0.008 | ~0.008
2 | CC=CC=CC1C(C)=CC2CC(C)CCC2C1(C)C(O)=C1C(=O)C(CO)N(C)C1=O (centres unmarked) [Compound B] | 11 |  | 
3 | CCCCCC1C(C)=CC2CC(C)CCC2C1(C)C(O)=C1C(=O)C(CO)N(C)C1=O (centres unmarked) [Compound C] | 5 |  | 
